Data set [1] is described as follows: Toxicity test on endothelial cells EA.hy926, CCK-8 cell viability. It is filed as cell-based. The note with it: human, 1000~0.32 μmol/L, 5-fold dilution, read-out: IC50 of Test compound (cytotoxicity on EA.hy926 cells). On the procedure:
In this test example, 31 groups, i.e., Groups 1 to 31, were set, in which Group 1 was a blank control group, Group 2 was a normal control group, Group 3 was a positive control group, and Groups 4 to 31 were test groups of the compounds of the present application. The specific test operation comprised: 100 μL of endothelial cells EA.hy926 (purchased from Suzhou Beina Chuanglian Biotechnology Co., Ltd.) with a density of 5×10^4 was added to each well of a 96-well plate, and transferred to an incubator at 37° C. with 5% CO2 and saturated humidity conditions and cultured for 24 hours, 100 μL of 2× the test compound solution prepared and diluted with DMEM medium containing 10% fetal bovine serum was added, in which the test compound added in the positive control group was Fasudil hydrochloride (purchased from Beijing Sihuan Pharmaceutical Co., Ltd., SFDA approval number H20173349) solution with different concentrations, an equal volume of DMEM medium was added in the blank control group, an equal volume of PBS buffer was added in the normal control group, and a duplicate well was set for each concentration point. After adding the test compound, the culture was continued in the incubator for 24 hours, then 20 μL of CCK-8 detection solution (purchased from Beijing Solarbio Science & Technology Co., Ltd., Cat. No. CA1210) was added to each well, interacted at 37° C. for 2.5 hours, shaken and mixed well, and then the absorbance value at 450 nm was detected.
OD values were detected, and the cell viability values of test groups of different concentrations were calculated according to the cell viability calculation formula as follows: Cell viability=(Atest group−Ablank control)/(Anormal control−Ablank control)*100%
wherein A represented absorbance value at 450 nm.
Prism6.0 was used to obtain the inhibitor concentration-viability curve and to calculate the IC50 of the test compound, the correlation coefficient R^2>0.99; the inhibitor concentration-viability curves of Fasudil hydrochloride, R-YK1601, R-YK1603, R-YK1606, R-YK1607, R-YK1610 were shown in FIGS. 1 to 6, in which the abscissa was the logarithm on base 10 of the concentration of the test compound, and the ordinate was the cell activity (i.e., cell viability).

The subject of data set [2] is subarachnoid hemorrhage in rats. Nature of the data set: Rat subarachnoid hemorrhage (SAH) model by intravascular puncture, Sugawara bleeding score. More on the design: dose or concentration left out as unconfirmed. The note with it: tail vein injection, 2 administrations 4 h apart, scored 24 h after first administration (Sugawara). It is filed as in vivo. On the procedure: Rat subarachnoid hemorrhage (SAH) model was built by intravascular puncture. After being weighed, the rats were anesthetized with sodium pentobarbital (50 mg/kg) or chloral hydrate (300 mg/kg) by intraperitoneal injection, then fixed on their back and maintained the animal's body temperature at about 37° C. The rats' neck skin was shaved for surgery, a median incision was made on the neck, and muscle and fascia were separated along the inner edge of stemocleidomastoid muscle to expose the main and bifurcation of right common carotid artery, and expose the external and internal carotid arteries.
The bifurcation of internal carotid artery was gently clamped with ophthalmic forceps, the bifurcation of the internal carotid artery and the external carotid artery was pierced with a 6-gauge syringe needle, the ophthalmic forceps holding the bifurcation of internal carotid artery was slightly loosen, and No. 3 fishing thread was used to perform a puncture at the bleeding point, the ophthalmic forceps on the internal carotid artery was loosen, and the fishing thread was inserted into skull. […] After staying for 15 seconds, the thread for puncture was completely removed, and the skin was sutured after compression to stop the bleeding. 1.6 million units of penicillin potassium (400,000 units/ml, 0.2 ml/rat) was intramuscularly injected to avoid wound infection. For the sham operation group, the thread for puncture was removed when resistance was felt without piercing the bifurcation of the anterior cerebral artery and the middle cerebral artery, while the remaining operation steps were the same as the model group. After the operation, the rats were transferred to a thermal insulation blanket, then transferred to a squirrel cage when they were basically awake, and kept normally.
In this test experimental, 32 groups were set, i.e., Groups 1 to 32, in which Group 1 was a normal control group (healthy rats), Group 2 was a sham operation control group (not modeling by puncture), Group 3 was a model control group (modeling by puncture, administrated with normal saline), Group 4 was a positive control group (modeling by puncture, administrated with fasudil hydrochloride injection), and Groups 5 to 32 were test groups of the compounds of the present application (modeling by puncture, respectively administrated with the compounds of the present application); and there were 8 animals (purchased from SPF (Beijing) Biotechnology Co., Ltd., the certificate number was SYXK (Beijing) 2016-0002) in each group, half of them were female and half of them were male. The animals were subjected to fasting for 12 to 18 hours without prohibition of drinking water before modeling. […] The rats were euthanized 24 h after the first administration, and the brains were taken. According to Sugawara's method (Reference: Sugawara T, Ayer R, Jadhav V, et al. A new grading system evaluating bleeding scale in filament perforation subarachnoid hemorrhage rat model. J Neurosci Methods. 2008, 167(2):327-34), the subarachnoid hemorrhage amounts were scored, and the scoring results were as follows: […]

Consider `CC1CNCCCN1S(=O)(=O)c1cccc2c(O)ncc(C3CC3)c12` (racemic) [Compound YK1600-1, 4-cyclopropyl-5-((2-methyl-1,4-diazacycloheptan-1-yl)sulfonyl)isoquinolin-1-ol], for which the IC50 at 24 h in data set [1] came out at 97.8 µM. Moreover, the “Cerebral hemorrhage volume score (x ± s)” value in data set [2] is reported as 14.36 ± 2.53.

Consider `COc1ncc(C2CC2)c2c(S(=O)(=O)N3CCCNCC3C)cccc12` (racemic) [Compound YK1600-2, 4-cyclopropyl-1-methoxy-5-((2-methyl-1,4-diazacycloheptan-1-yl)sulfonyl)isoquinoline], for which the IC50 at 24 h in data set [1] was 85.1 µM. For the same molecule, the “Cerebral hemorrhage volume score (x ± s)” value in data set [2] came out at 14.49 ± 2.62.

`CC1CNCCCN1S(=O)(=O)c1cccc2c(O)nccc12` (racemic) [Compound YK1601, 5-((2-methyl-1,4-diazacycloheptan-1-yl)sulfonyl)isoquinolin-1-ol]: the IC50 at 24 h in data set [1] was determined as 496 µM. In data set [2], the “Cerebral hemorrhage volume score (x ± s)” value came out at 12.75 ± 2.01.

As to `COc1nccc2c(S(=O)(=O)N3CCCNCC3C)cccc12` (racemic) [Compound YK1602, 1-methoxy-5-((2-methyl-1,4-diazacycloheptan-1-yl)sulfonyl)isoquinoline], the IC50 at 24 h in data set [1] was determined as 333 µM. In data set [2], the “Cerebral hemorrhage volume score (x ± s)” value came out at 12.92 ± 2.03.

For the molecule `CC1CNCCCN1S(=O)(=O)c1cccc2cnccc12` (racemic) [Compound YK1603, 5-((2-methyl-1,4-diazacycloheptan-1-yl)sulfonyl)isoquinoline], in data set [1], the IC50 at 24 h turned out to be 176 µM. For the same molecule, in data set [2], the “Cerebral hemorrhage volume score (x ± s)” value turned out to be 12.96 ± 1.99.

Take `CC1CNCCCN1S(=O)(=O)c1cccc2c(O)ncc(F)c12` (racemic) [Compound YK1604, 4-fluoro-5-((2-methyl-1,4-diazacycloheptan-1-yl)sulfonyl)isoquinolin-1-ol]: in data set [1], the IC50 at 24 h amounted to 130 µM. Besides, the “Cerebral hemorrhage volume score (x ± s)” value in data set [2] is on record as 13.08 ± 1.97.

In the case of `COc1ncc(F)c2c(S(=O)(=O)N3CCCNCC3C)cccc12` (racemic) [Compound YK1605, 4-fluoro-1-methoxy-5-((2-methyl-1,4-diazacycloheptan-1-yl)sulfonyl)isoquinoline], the 50% inhibitory concentration (IC50) at 24 h in data set [1] was found to be 103 µM. For the same molecule, the “Cerebral hemorrhage volume score (x ± s)” value in data set [2] is recorded as 13.95 ± 2.02.

Take `CC1CNCCCN1S(=O)(=O)c1cccc2c(O)ncc(Cl)c12` (racemic) [Compound YK1606, 4-chloro-5-((2-methyl-1,4-diazacycloheptan-1-yl)sulfonyl)isoquinolin-1-ol]: the half-inhibitory concentration (IC50) at 24 h in data set [1] turned out to be 98 µM. In addition, the “Cerebral hemorrhage volume score (x ± s)” value in data set [2] stood at 13.71 ± 2.03.

On to `CCc1cnc(O)c2cccc(S(=O)(=O)N3CCCNCC3C)c12` (racemic) [Compound YK1607, 4-ethyl-5-((2-methyl-1,4-diazacycloheptan-1-yl)sulfonyl)isoquinolin-1-ol], for which the IC50 at 24 h in data set [1] was determined as 139 µM. Besides, the “Cerebral hemorrhage volume score (x ± s)” value in data set [2] stood at 13.09 ± 2.09.

With `O=S(=O)(c1cccc2cnccc12)N1CCCNCC1C1CC1` (racemic) [Compound YK1608, 5-((2-cyclopropyl-1,4-diazacycloheptan-1-yl)sulfonyl)isoquinoline], in data set [1], the IC50 at 24 h turned out to be 165 µM. Moreover, in data set [2], the “Cerebral hemorrhage volume score (x ± s)” value is 13.98 ± 2.01.

As to `CC(C)C1CNCCCN1S(=O)(=O)c1cccc2c(O)nccc12` (racemic) [Compound YK1609, 5-((2-isopropyl-1,4-diazacycloheptan-1-yl)sulfonyl)isoquinolin-1-ol], the IC50 at 24 h in data set [1] amounted to 228 µM. Moreover, the “Cerebral hemorrhage volume score (x ± s)” value in data set [2] came to 13.27 ± 1.96.

For the molecule `CCC1CNCCCN1S(=O)(=O)c1cccc2c(OC)nccc12` (racemic) [Compound YK1610, 5-((2-ethyl-1,4-diazacycloheptan-1-yl)sulfonyl)-1-methoxyisoquinoline], the IC50 at 24 h in data set [1] stood at 98.8 µM. Moreover, the “Cerebral hemorrhage volume score (x ± s)” value in data set [2] came out at 13.83 ± 2.01.

Consider `CCCCC1CNCCCN1S(=O)(=O)c1cccc2c(O)nccc12` (racemic) [Compound YK1611, 5-((2-butyl-1,4-diazacycloheptan-1-yl)sulfonyl)isoquinolin-1-ol], for which, in data set [1], the IC50 at 24 h worked out at 184 µM. Moreover, in data set [2], the “Cerebral hemorrhage volume score (x ± s)” value was found to be 13.39 ± 2.03.

As to `COc1nccc2c(S(=O)(=O)N3CCCNCC3CCC(C)C)cccc12` (racemic) [Compound YK1612, 5-((2-isopentyl-1,4-diazacycloheptan-1-yl)sulfonyl)-1-methoxyisoquinoline], the IC50 at 24 h in data set [1] was 89.6 µM. Further, the “Cerebral hemorrhage volume score (x ± s)” value in data set [2] was found to be 14.05 ± 1.96.

The IC50 is the point on the concentration scale where inhibition reaches its midpoint.

The values are drawn from patent US12264146B2, “Rho kinase inhibitor, method for preparing same and uses thereof” (BEIJING INCREASE INNOVATIVE DRUG CO., LTD., priority 2018, dated 2025).
